US9399646B2 (Genentech, Inc., priority 2010, dated 2016)

Assays:
MCF-7 cells = test: Breast cancer cell viability assay (CellTiter-Glo, 5 days); format: cell-based; details: 5 days' compound exposure; for IC50: Homo sapiens, MCF7, 120 h
Method: MCF-7 cells were adjusted to a concentration of 20,000 cells per mL in RPMI containing 10% FBS and 20 mM HEPES. 16 microliters of the cell suspension (320 cells) was added to each well of a 384 well plate, and the cells were incubated overnight to allow the cells to adhere. The following day an eleven point, serial semilog dilution of each compound was added to the cells in 16 μL at a final concentration ranging from 0.3-0.000003 μM. After 5 days' compound exposure, 16 μL of CellTiter-GLo (Promega, Madison Wis.) was added to the cells the relative luminescence units (RLUs) of each well was determined CellTiter-Glo added to 32 μL of medium without cells was used to obtain a background value. The Percent viability of each sample was determined as follows: (RLU sample-RLU background/RLU untreated cells-RLU background)×100=% viability.

ER-α in MCF-7 cells = biological target: T1, ER-α in MCF-7 cells (Homo sapiens, UniProt P03372); test: Breast cancer cell ER-α in cell western assay (SP1); format: cell-based; parameters: endogenous in cells; host or cells: MCF-7; details: 4 or 24 hr post compound addition; for Emax: MCF7, SP1 antibody, read-out: ER-α In Cell Western Assay (SP1) Max Response; for DC50: SP1 antibody, read-out: ER-α In Cell Western Assay (SP1) IC50
T1 sequence (P03372 1-595): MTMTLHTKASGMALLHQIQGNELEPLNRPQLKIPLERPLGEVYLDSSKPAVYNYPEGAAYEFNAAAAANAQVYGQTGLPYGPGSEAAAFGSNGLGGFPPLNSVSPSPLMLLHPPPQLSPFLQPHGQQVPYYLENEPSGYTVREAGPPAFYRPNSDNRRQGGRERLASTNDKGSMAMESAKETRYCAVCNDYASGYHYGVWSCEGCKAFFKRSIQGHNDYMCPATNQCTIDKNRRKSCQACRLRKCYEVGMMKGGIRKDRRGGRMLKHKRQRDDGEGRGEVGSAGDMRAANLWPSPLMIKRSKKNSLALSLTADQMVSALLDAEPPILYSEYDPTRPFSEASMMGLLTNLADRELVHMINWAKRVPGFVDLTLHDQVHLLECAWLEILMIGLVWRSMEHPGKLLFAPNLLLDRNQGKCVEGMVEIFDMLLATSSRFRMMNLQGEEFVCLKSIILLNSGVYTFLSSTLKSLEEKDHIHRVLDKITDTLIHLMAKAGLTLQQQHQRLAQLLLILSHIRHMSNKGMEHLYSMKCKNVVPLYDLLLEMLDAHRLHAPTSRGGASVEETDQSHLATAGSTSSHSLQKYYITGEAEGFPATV
Method: MCF-7 cells were adjusted to a concentration of 200,000 cells per mL in RPMI containing 10% charcoal-stripped FBS and 20 mM HEPES. 16 microliters of the cell suspension (3200 cells) was added to each well of a poly-D-lysine 384 well plate, and the cells were incubated overnight to allow the cells to adhere. The following day an eleven point, serial semilog dilution of each compound was added to the cells in 16 μL at a final concentration ranging from 0.3-0.000003 μM. At 4 or 24 hr post compound addition, the cells were fixed (10% formalin in PBS) for 20 minutes. Cells were permeablized in PBS 0.1% Triton and blocked with LICOR blocking buffer (50 μl/well, 90°). The wells were then incubated overnight at 4° C. with SP1 rabbit monoclonal Ab (Thermo Scientific) diluted 1:1000 in LICOR blocking buffer/0.1% Tween-20. Wells which were treated with blocking buffer with Tween but no antibody were used as a background control. Wells were washed with 0.1% Tween-20/PBS and then incubated in goat anti-rabbit IRDye™ 800CW (LICOR Inc.; 1:1000) and DRAQ5 DNA dye (1:2000 for 2 mM stock) diluted in LICOR blocking buffer containing 0.1% Tween-20 and 0.01% SDS for 60 minutes. Cells were washed (50 μl/well, 5′ each) in 0.1% Tween-20/PBS. Plates were scanned on a LICOR Odyssey infrared imaging system. Integrated intensities in the 800 nm channel and 700 nm channel were measured to determine levels of ER and DNA respectively. Percent ER levels were determined as follows: (Integrated intensity 800 nm sample/integrated intensity 700 nm sample)/(Integrated intensity 800 nm untreated cells/integrated intensity 700 nm untreated cells)×100=% ER levels.

Row | IC50 (MCF-7 cells) | Emax (ER-α in MCF-7 cells) | DC50 (ER-α in MCF-7 cells) | Structure (SMILES) | MCF7 Viability Assay Max Response (MCF-7 cells)
1 | ≤ 100 nM | ≥ 40% | – | CC/C(=C(/c1ccc(/C=C/C(=O)O)cc1)c1ccc2[nH]nnc2c1)c1ccccc1 [Compound 3, (E)-3-(4-((E)-1-(1H-Benzo[d][1,2,3]triazol-5-yl)-2-phenylbut-1-en-1-yl)phenyl)acrylic acid] | ++ (++ = a single % value ≧ 40%)
2 | > 100 nM | ≥ 40% | – | CC/C(=C(/c1ccc(/C=C/C(=O)O)cc1)c1ccc2cn[nH]c2c1)c1ccccc1 [Compound 5, (E)-3-(4-((E)-1-(1H-Indazol-6-yl)-2-phenylbut-1-en-1-yl)phenyl)acrylic acid] | ++ (++ = a single % value ≧ 40%)
3 | ≤ 100 nM | ≥ 40% | – | CC/C(=C(/c1ccc(/C=C/C(=O)O)cc1)c1cccc2[nH]ncc12)c1ccccc1 [Compound 18, (E)-3-(4-((E)-1-(1H-Indazol-4-yl)-2-phenylbut-1-en-1-yl)phenyl)acrylic acid] | ++ (++ = a single % value ≧ 40%)
4 | ≤ 100 nM | ≥ 40% | ≤ 100 nM | CC/C(=C(/c1ccc(/C=C/C(=O)O)cc1)c1cccc2[nH]ncc12)c1ccccc1C [Compound 21, (E)-3-(4-((E)-1-(1H-Indazol-4-yl)-2-(o-tolyl)but-1-en-1-yl)phenyl)acrylic acid] | ++ (++ = a single % value ≧ 40%)
5 | ≤ 100 nM | ≥ 40% | ≤ 100 nM | CC/C(=C(/c1ccc(/C=C/C(=O)O)cc1)c1cccc2[nH]ncc12)c1ccccc1Cl [Compound 22, (E)-3-(4-((E)-2-(2-Chlorophenyl)-1-(1H-indazol-4-yl)but-1-en-1-yl)phenyl)acrylic acid] | ++ (++ = a single % value ≧ 40%)
6 | ≤ 100 nM | ≥ 40% | ≤ 100 nM | CC/C(=C(/c1ccc(/C=C/C(=O)O)cc1)c1ccc2[nH]ncc2c1)c1cccs1 [Compound 23, (E)-3-(4-((E)-1-(1H-Indazol-5-yl)-2-(thiophen-2-yl)but-1-en-1-yl)phenyl)acrylic acid] | ++ (++ = a single % value ≧ 40%)
7 | ≤ 100 nM | ≥ 40% | ≤ 100 nM | CC/C(=C(/c1ccc(/C=C/C(=O)O)cc1)c1ccc2[nH]ncc2c1)c1ccsc1 [Compound 24, (E)-3-(4-((E)-1-(1H-Indazol-5-yl)-2-(thiophen-3-yl)but-1-en-1-yl)phenyl)acrylic acid] | ++ (++ = a single % value ≧ 40%)
8 | > 100 nM | ≥ 40% | > 100 nM | CC/C(=C(/c1ccc(/C=C/C(=O)O)cc1)c1ccc2[nH]ncc2c1)c1ccccn1 [Compound 25, (E)-3-(4-((E)-1-(1H-Indazol-5-yl)-2-(pyridin-2-yl)but-1-en-1-yl)phenyl)acrylic acid] | ++ (++ = a single % value ≧ 40%)
9 | > 100 nM | ≥ 40% | > 100 nM | CC/C(=C(/c1ccc(/C=C/C(=O)O)cc1)c1ccc2[nH]ncc2c1)c1ccccc1-c1ccccc1 [Compound 28, (E)-3-(4-((E)-2-([1,1′-Biphenyl]-2-yl)-1-(1H-indazol-5-yl)but-1-en-1-yl)phenyl)acrylic acid] | ++ (++ = a single % value ≧ 40%)
10 | ≤ 100 nM | ≥ 40% | ≤ 100 nM | CC/C(=C(/c1ccc(/C=C/C(=O)O)cc1)c1cccc2[nH]ncc12)c1ccc(F)cc1Cl [Compound 30, (E)-3-(4-((E)-2-(2-Chloro-4-fluorophenyl)-1-(1H-indazol-4-yl)but-1-en-1-yl)phenyl)acrylic acid] | ++ (++ = a single % value ≧ 40%)
11 | > 100 nM | – | – | CC/C(=C(/c1ccc(/C=C/C(=O)O)cc1)c1ccc2c(cnn2C(F)F)c1)c1ccc(F)cc1Cl [Compound 401, (E)-3-(4-((E)-2-(2-Chloro-4-fluorophenyl)-1-(1-(difluoromethyl)-1H-indazol-5-yl)but-1-en-1-yl)phenyl)acrylic acid] | –
